The values below come from patent US10988440B2, “FTO inhibitors” (National Institute of Biological Sciences, Beijing, priority 2015, dated 2021).

The first data set addresses T1, COMT enzyme (Homo sapiens, UniProt P21964).
T1 construct: COMT (μM); other: at 200 nM; other: at 50 nM; The reaction system contains 1U COMT enzyme, test article, 4 μM Esculetin, 0.6 mM AdoMet, 50 mM K3PO4, and 10 mM MgCl2
T1 sequence (P21964 1-271): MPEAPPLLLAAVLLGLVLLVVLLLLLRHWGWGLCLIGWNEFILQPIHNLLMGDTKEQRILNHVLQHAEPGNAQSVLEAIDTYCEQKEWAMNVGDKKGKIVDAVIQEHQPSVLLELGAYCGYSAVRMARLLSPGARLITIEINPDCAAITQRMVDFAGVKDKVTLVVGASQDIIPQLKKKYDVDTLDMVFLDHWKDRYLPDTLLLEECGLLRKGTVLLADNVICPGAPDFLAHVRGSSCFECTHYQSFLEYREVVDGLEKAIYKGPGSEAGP
Description: COMT inhibition assay (reaction kinetic model, esculetin fluorescence). The data set is classed as biochemical.
Conditions: not given
As for `CCN(CC)C(=O)/C(C#N)=C(\O)c1cc(O)c(O)c([N+](=O)[O-])c1` [Compound 347, 2-cyano-3-(3,4-dihydroxy-5-nitrophenyl)-N,N-diethyl-3-oxopropanamide], the IC50 was determined as 551 nM.

Still in this data set, the particulars now being: read-out: COMT inhibition at 50 nM.
On to `N#C/C(=C\c1cc(O)c(O)c([N+](=O)[O-])c1)C(=O)N1CCCCC1` [Compound 371, (E)-3-(3,4-dihydroxy-5-nitrophenyl)-2-(piperidine-1-carbonyl)acrylonitrile], for which the inhibition at 0.05 µM came to 33%.

Staying with this data set, now noted: read-out: COMT inhibition at 200 nM.
In the case of `N#C/C(=C\c1cc(O)c(O)c([N+](=O)[O-])c1)C(=O)N1CCCCC1` [Compound 371, (E)-3-(3,4-dihydroxy-5-nitrophenyl)-2-(piperidine-1-carbonyl)acrylonitrile], the inhibition at 0.2 µM came to 71%.

In the next data set the target is FTO (Homo sapiens, UniProt Q9C0B1). The data set can be described thus: demethylation reaction catalyzed by FTO (enzymatic inhibition, HPLC-MS/MS of N6-mA and A). The class given is biochemical. The following applies: exemplary IC50 data of representative compounds; read-out: Enzymatic inhibition (IC50).
Sequence of FTO (Q9C0B1 whole entry): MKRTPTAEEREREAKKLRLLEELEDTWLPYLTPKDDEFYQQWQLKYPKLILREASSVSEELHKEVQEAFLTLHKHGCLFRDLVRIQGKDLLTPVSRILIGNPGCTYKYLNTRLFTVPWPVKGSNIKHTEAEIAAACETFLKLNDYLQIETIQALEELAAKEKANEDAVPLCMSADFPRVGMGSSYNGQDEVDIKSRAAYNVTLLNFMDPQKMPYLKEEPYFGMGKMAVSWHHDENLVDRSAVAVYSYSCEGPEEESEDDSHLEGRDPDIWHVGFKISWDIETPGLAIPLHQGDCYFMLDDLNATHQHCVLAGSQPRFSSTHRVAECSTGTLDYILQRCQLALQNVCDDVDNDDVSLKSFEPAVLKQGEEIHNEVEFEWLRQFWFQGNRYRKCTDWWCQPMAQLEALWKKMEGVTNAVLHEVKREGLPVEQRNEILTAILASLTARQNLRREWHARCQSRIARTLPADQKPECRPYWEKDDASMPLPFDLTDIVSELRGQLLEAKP
For `N#CC(=Cc1cc(O)c(O)c([N+](=O)[O-])c1)c1cccnn1` (stereo in doubt) [Compound 505, (E)-3-(3,4-dihydroxy-5-nitrophenyl)-2-(pyridazin-3-yl)acrylonitrile], the IC50 was less than 1000 nM.
On the same count and under the same terms, to `N#CC(=Cc1cc(O)c(O)c([N+](=O)[O-])c1)c1ccc[n+]([O-])c1` (stereo in doubt) [Compound 518, (E)-3-(1-cyano-2-(3,4-dihydroxy-5-nitrophenyl)vinyl)pyridine 1-oxide] belongs more than 1000 nM; to `N#C/C(=C\c1cc(O)c(O)c([N+](=O)[O-])c1)C(=O)N1CCCC1` [Compound 317], more than 1000 nM; to `N#C/C(=C\c1cc(O)c(O)c([N+](=O)[O-])c1)C(=O)Nc1ccccc1` [Compound 318], approximately 1000 nM.
As to `N#C/C(=C\c1cc(O)c(O)c([N+](=O)[O-])c1)c1cccnc1` [Compound 319], the IC50 was less than 1000 nM.
On the same count and under the same terms, to `N#C/C(=C\c1cc(O)c(O)c([N+](=O)[O-])c1)C(=O)Nc1nc2ccccc2s1` [Compound 333] belongs more than 1000 nM.
Still for that read-out and setting: with `N#C/C(=C(/O)c1cc(O)c(O)c([N+](=O)[O-])c1)c1nc2ccccc2s1` [Compound 359] the figure was more than 1000 nM.
On the same count and under the same terms, to `N#C/C(=C\c1cc(O)c(O)c([N+](=O)[O-])c1)C(=O)Nc1cccc(Cl)c1` [Compound 365] belongs approximately 1000 nM; to `N#C/C(=C\c1cc(O)c(O)c([N+](=O)[O-])c1)C(=O)NCc1ccccc1` [Compound 366], more than 1000 nM; to `N#C/C(=C\c1cc(O)c(O)c([N+](=O)[O-])c1)C(=O)N1CCOCC1` [Compound 382], more than 1000 nM.
In the case of `N#C/C(=C\c1cc(O)c(O)c([N+](=O)[O-])c1)c1ccncc1` [Compound 389], the IC50 was approximately 1000 nM.
As for `N#C/C(=C\c1cc(O)c(O)c([N+](=O)[O-])c1)C(=O)c1nc2ccccc2[nH]1` [Compound 394, 2-(1H-benzo[d]imidazole-2-carbonyl)-3-(3,4-dihydroxy-5-nitrophenyl)acrylo-nitrile], the 50% inhibitory concentration (IC50) is more than 1000 nM.
As to `Cc1ccc(/C(C#N)=C/c2cc(O)c(O)c([N+](=O)[O-])c2)nc1` [Compound 502], the IC50 was less than 1000 nM.
As for `N#C/C(=C\c1cc(O)c(O)c([N+](=O)[O-])c1)c1c[n+]([O-])ccn1` [Compound 520], the IC50 is less than 1000 nM.
Same read-out and setting: with `N#C/C(=C\c1cc(O)c(O)c([N+](=O)[O-])c1)c1cncnc1` [Compound 522] the figure was approximately 1000 nM.
Same read-out and setting: to `COc1cc(/C(O)=C(\C#N)c2cnccn2)cc([N+](=O)[O-])c1O` [Compound 524] belongs approximately 1000 nM.
Same read-out and setting: with `N#C/C(=C\c1cc(O)c(O)c([N+](=O)[O-])c1)c1ncns1` [Compound 656, (E)-3-(3,4-dihydroxy-5-nitrophenyl)-2-(1,2,4-thiadiazol-5-yl)acrylonitrile] the figure was less than 1000 nM; with `N#C/C(=C\c1cc(O)c(O)c([N+](=O)[O-])c1)C(=O)NO` [Compound 664], approximately 1000 nM.
Take `N#C/C(=C\c1cc(O)c(O)c([N+](=O)[O-])c1)c1nc(C(=O)O)cs1` [Compound 666, (E)-2-(1-cyano-2-(3,4-dihydroxy-5-nitrophenyl)vinyl)thiazole-4-carboxylic Acid]: the IC50 was less than 1000 nM.
On to `N#C/C(C(=O)Nc1ncns1)=C(/O)c1cc(O)c(O)c([N+](=O)[O-])c1` [Compound 668, 2-cyano-3-(3,4-dihydroxy-5-nitrophenyl)-3-hydroxy-N-(1,2,4-thiadiazol-5-yl)acrylamide], for which the IC50 was less than 1000 nM.
The same measure, in the same setting: with `N#C/C(C(=O)NCc1ccncn1)=C(/O)c1cc(O)c(O)c([N+](=O)[O-])c1` [Compound 673, (Z)-2-cyano-3-(3,4-dihydroxy-5-nitrophenyl)-3-hydroxy-N-(pyrimidin-4-ylmethyl)acrylamide] the figure was less than 1000 nM; with `COc1cc(/C(O)=C(\C#N)C(=O)NCc2ccncn2)cc([N+](=O)[O-])c1O` [Compound 674], more than 1000 nM.
Same read-out and setting: with `N#C/C(=C\c1cc(O)c(O)c([N+](=O)[O-])c1)C(=O)c1cc(O)no1` [Compound 675, (E)-3-(3,4-dihydroxy-5-nitrophenyl)-2-(3-hydroxyisoxazole-5-carbonyl)acrylonitrile] the figure was more than 1000 nM; with `CCNC(=O)/C(C#N)=C/c1cc(O)c(O)c([N+](=O)[O-])c1` [Compound 684], more than 1000 nM; with `N#C/C(=C\c1cc(O)c(O)c([N+](=O)[O-])c1)C(=O)NCCO` [Compound 688, (E)-2-cyano-3-(3,4-dihydroxy-5-nitrophenyl)-N-(2-hydroxyethyl)acrylamide], more than 1000 nM.
Still for that read-out and setting: to `CCNC(=O)/C(C#N)=C(\O)c1cc(O)c(O)c([N+](=O)[O-])c1` [Compound 691, (Z)-2-cyano-3-(3,4-dihydroxy-5-nitrophenyl)-N-ethyl-3-hydroxyacrylamide] belongs less than 1000 nM.
Consider `CCNC(=O)/C(C#N)=C(\N)c1cc(O)c(O)c([N+](=O)[O-])c1` [Compound 691N, (Z)-3-amino-2-cyano-3-(3,4-dihydroxy-5-nitrophenyl)-N-ethylacrylamide], for which the IC50 was approximately 1000 nM.
For `N#C/C(C(=O)NC1CC1)=C(/O)c1cc(O)c(O)c([N+](=O)[O-])c1` [Compound 692, (Z)-2-cyano-N-cyclopropyl-3-(3,4-dihydroxy-5-nitrophenyl)-3-hydroxyacrylamide], the IC50 is less than 1000 nM.
The same measure, in the same setting: to `N#C/C(C(=O)NC1CC1)=C(/N)c1cc(O)c(O)c([N+](=O)[O-])c1` [Compound 692N, (Z)-3-amino-2-cyano-N-cyclopropyl-3-(3,4-dihydroxy-5-nitrophenyl)acrylamide] belongs more than 1000 nM; to `N#C/C(=C\c1cc(O)c(O)c([N+](=O)[O-])c1)C(=O)N[C@@H](CO)C(=O)O` [Compound 693, (S,E)-2-(2-cyano-3-(3,4-dihydroxy-5-nitrophenyl)acrylamido)-3-hydroxypropanoic Acid], approximately 1000 nM.
Still for that read-out and setting: to `N#C/C(=C(/N)c1cc(O)c(O)c([N+](=O)[O-])c1)c1cnc(C(=O)O)cn1` [Compound 697N] belongs less than 1000 nM; to `N#C/C(=C\c1cc(O)c(O)c([N+](=O)[O-])c1)C(=O)c1cscn1` [Compound 698], more than 1000 nM.
Consider `N#C/C(C(=O)N1CCC1)=C(/N)c1cc(O)c(O)c([N+](=O)[O-])c1` [Compound 701N, (Z)-3-amino-2-(azetidine-1-carbonyl)-3-(3,4-dihydroxy-5-nitrophenyl)acrylonitrile], for which the IC50 is more than 1000 nM.
On the same count and under the same terms, with `N#C/C(=C\c1cc(O)c(O)c([N+](=O)[O-])c1)C(=O)N1CCC[C@H]1C(=O)O` [Compound 702, (S,E)-1-(2-cyano-3-(3,4-dihydroxy-5-nitrophenyl)acryloyl)pyrrolidine-2-carboxylic Acid] the figure was approximately 1000 nM; with `N#C/C(=C\c1cc(O)c(O)c([N+](=O)[O-])c1)C(=O)NCC(=O)O` [Compound 709, (E)-2-(2-cyano-3-(3,4-dihydroxy-5-nitrophenyl)acrylamido)acetic Acid], less than 1000 nM; with `N#C/C(C(=O)c1cscn1)=C(/O)c1cc(O)c(O)c([N+](=O)[O-])c1` [Compound 711, (Z)-3-(3,4-dihydroxy-5-nitrophenyl)-3-hydroxy-2-(thiazole-4-carbonyl)acrylonitrile], approximately 1000 nM.
On the same count and under the same terms, with `N#C/C(C(=O)c1cscn1)=C(/N)c1cc(O)c(O)c([N+](=O)[O-])c1` [Compound 711N, ammonium (Z)-5-(1-amino-2-cyano-3-oxo-3-(thiazol-4-yl)prop-1-enyl)-2-hydroxy-3-nitrophenolate] the figure was more than 1000 nM.
Consider `CC(NC(=O)/C(C#N)=C/c1cc(O)c(O)c([N+](=O)[O-])c1)C(=O)O` (centres unmarked) [Compound 712], for which the IC50 was approximately 1000 nM.
Consider `N#C/C(=C\c1cc(O)c(O)c([N+](=O)[O-])c1)C(=O)NC1COC1` [Compound 713], for which the IC50 is less than 1000 nM.
The same measure, in the same setting: with `N#C/C(C(=O)N1CCCOC1)=C(/O)c1cc(O)c(O)c([N+](=O)[O-])c1` [Compound 715] the figure was less than 1000 nM; with `N#C/C(C(=O)Nc1cnccn1)=C(/O)c1cc(O)c(O)c([N+](=O)[O-])c1` [Compound 722], less than 1000 nM.

Tested on in a further data set: not listed separately
The data set can be described thus: Rat liver microsome stability assay. The data set is classed as in vitro ADME. The following applies: liver microsomes, pH 7.4; rat liver microsome 1 mg/ml, test compound 2 μM, NADPH 1 mM, 37° C.; read-out: Rat Liver Microsome CLint (μL/min/mg protein).
`CCN(CC)C(=O)/C(C#N)=C(\O)c1cc(O)c(O)c([N+](=O)[O-])c1` [Compound 347, 2-cyano-3-(3,4-dihydroxy-5-nitrophenyl)-N,N-diethyl-3-oxopropanamide]: the microsomal CLint at 1 h, 2 µM came out at 0.1 µL/min/mg.
For `N#C/C(=C\c1cc(O)c(O)c([N+](=O)[O-])c1)C(=O)N1CCCCC1` [Compound 371, (E)-3-(3,4-dihydroxy-5-nitrophenyl)-2-(piperidine-1-carbonyl)acrylonitrile], the microsomal CLint at 1 h, 2 µM was found to be 43 µL/min/mg.
On the same count and under the same terms, to `CCN(CC)C(=O)/C(C#N)=C/c1cc(O)c(O)c([N+](=O)[O-])c1` [Entacapone, entacapone, reference compound] belongs 17.7 µL/min/mg.

Still in this data set, the particulars now being: liver microsomes, pH 7.4; rat liver microsome 1 mg/ml, test compound 2 μM, NADPH 1 mM, 37° C.; read-out: Rat Liver Microsome T½.
For the molecule `CCN(CC)C(=O)/C(C#N)=C(\O)c1cc(O)c(O)c([N+](=O)[O-])c1` [Compound 347, 2-cyano-3-(3,4-dihydroxy-5-nitrophenyl)-N,N-diethyl-3-oxopropanamide], the half-life at 1 h, 2 µM came out at 6930 min.
The same measure, in the same setting: with `N#C/C(=C\c1cc(O)c(O)c([N+](=O)[O-])c1)C(=O)N1CCCCC1` [Compound 371, (E)-3-(3,4-dihydroxy-5-nitrophenyl)-2-(piperidine-1-carbonyl)acrylonitrile] the figure was 16.1 min.
Still for that read-out and setting: to `CCN(CC)C(=O)/C(C#N)=C/c1cc(O)c(O)c([N+](=O)[O-])c1` [Entacapone, entacapone, reference compound] belongs 39.2 min.
